Legend:
[1] = tested on: GSK3β Ser9 and GSK3β Tyr216 phosphorylation; test: GSK3β phosphorylation (Ser9, Tyr216) immunoblot in HEK293 cells; type: cell-based, human; settings: for impact on GSK3β Ser9 or GSK3β Tyr216 phosphorylation prior to degradation: 10 nM 24, 27, 10 nM and 1 µM 29, 30 min
Procedure: HEK293, HAP1, HAP1 CRBN KO and SH-SY5Y cells were plated in either 6 cm plates or 6-well plates at varying densities (0.5–0.7 × 10^6 cells per plate or wells), and MEF cells were plated in 10 cm plates (1–1.2 × 10^6 cells per plate) depending on experimental set up in respective culturing condition as described above. Stock solutions of compounds were prepared as 10 mM in DMSO (Sigma–Aldrich). Working dilutions were made up fresh in DMSO and culturing media or differentiation media was refreshed prior to any compound treatments. For mode of action studies, cells were pre-treated with inhibitors for 2 h: 1 µM MG132 (Merck, 474790-5 mg), 1 µM MLN4924 (Merck, 5054770001) or 1 µM GSK3 inhibitor (compound 29), before treating with PROTACs for 2, 4 or 24 h as indicated in figure legends. Cells were washed twice with ice-cold PBS (Gibco), harvested in PBS and pelleted, cells were resuspended in RIPA buffer supplemented with complete EDTA-free protease inhibitor cocktail (Roche,11873580001, 1/10 mL) and phosSTOP (Roche, 04906845001, 1 tablet/10 mL) for 20 min lysis on ice then cleared via centrifugation at 16,000 × g, 4 °C for 20 min. SH-SY5Y cells were lysed in 500 µL ice-cold lysis buffer (25 mM Tris-HCl (pH 7.4), 50 mM NaF, 100 mM NaCl, 1 mM EDTA, 4 mM EGTA, 1% (v/v) Triton-X-100, 0.09% (w/v) sucrose, 10 mM sodium pyrophosphate, 10 mM sodium vanodate, 0.1% (v/v) β-mercaptoethanol, supplemented with complete mini protease inhibitor tablet (Sigma; 1 tablet/ 10 mL buffer)). Lysates were flash frozen, thawed and centrifugated at 16,000 × g, 4 °C for 20 min. Following clearance of lysates, protein concentrations were determined by the BCA assay (Fisher Scientific, 23225) or Bradford assay (Bio-rad). Five to thirty micrograms of protein from lysates were prepared in 4×LDS buffer (Thermo Fisher) and 50 mM dithiothreitol (DTT) denaturated at 95 °C for 5 min. Proteins were separated on NuPAGE 4–12% Bis-Tris gels (Invitrogen) or 4–12% Novex Tris-glycine gels (Invitrogen) in MOPS buffer (Invitrogen) and transferred onto nitrocellulose membranes using an iBlot3 system (Thermo Fisher Scientific) or nitrocellulose membranes (Cytiva) in cold tris-glycine-methanol buffer (25 mM Tris (pH 7.5), 192 mM glycine, 20% (v/v) methanol). Membranes were blocked with either 5% fat-free milk (Marvel) or 1% (w/v) BSA (Sigma) in TBS-T (20 mM Tris (pH 7.5), 150 mM NaCl, 0.1% (v/v) Tween-20 (Sigma)) at room temperature for 30 min, or in the case of SH-SY5Y assays, 1 h, before incubating with primary antibodies overnight at 4 °C on a rocker. […]

[2] = target: T1, GSK3β-HiBiT (GSK3β-HiBiT KI HEK293 cells) (Homo sapiens, UniProt P49841); test: HiBiT lytic degradation assay / high-throughput screen, 24 h; type: cell-based; settings: 24 h treatment
T1 construct: we generated endogenously tagged GSK3β-HiBiT knock-in (KI) HEK293 cells; endogenous in cells; host or cells: GSK3β-HiBiT knock-in HEK293 cells (CRISPR/Cas9, single-cell clone)
T1 sequence (P49841 whole entry): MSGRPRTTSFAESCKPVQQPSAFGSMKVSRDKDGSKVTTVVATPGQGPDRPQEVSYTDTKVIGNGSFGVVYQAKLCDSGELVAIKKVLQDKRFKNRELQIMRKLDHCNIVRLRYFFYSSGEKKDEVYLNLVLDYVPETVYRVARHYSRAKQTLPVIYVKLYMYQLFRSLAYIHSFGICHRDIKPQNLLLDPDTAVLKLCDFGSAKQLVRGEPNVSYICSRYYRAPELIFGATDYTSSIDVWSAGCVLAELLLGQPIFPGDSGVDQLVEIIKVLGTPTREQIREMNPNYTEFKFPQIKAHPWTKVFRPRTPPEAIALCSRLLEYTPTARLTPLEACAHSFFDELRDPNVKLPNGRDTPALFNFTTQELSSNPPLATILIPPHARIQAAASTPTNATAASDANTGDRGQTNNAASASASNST
Procedure: Crude compounds were assumed to be 10 mM concentration in DMSO and after generating libraries directly used in biological tests in degradation screens. Stock solutions were serially diluted into white bottom opaque 384-well plates (Perkin Elmer) using Echo500 (Labcyte) and DMSO was backfilled to maintain same DMSO content in each well for all concentrations. […] HiBiT lytic assay buffer (Promega) prepared according to the manufacturer’s instructions and added onto each well using Multidrop^TM Combi reagent dispenser. Luminescence signal was measured on PheraStar plate reader (BMG) and obtained data normalised to DMSO conditions using Excel and further analysed using GraphPad Prism (v10.1.2) and degradation curves were generated using 4-parameter non-linear regression fit to calculate DC50 and Dmax values. Data points associated with concentrations displaying a hook effect were excluded prior to DC50 and Dmax calculation.

[3] = tested on: HEK293 cells phosphoproteome; test: Phosphoproteomics in HEK293 cells; type: cell-based, human; parameters: scale not given here; settings: phosphosite abundance difference
Procedure: IMAC beads were prepared from Ni-NTA (nitrilotriacetic acid) superflow agarose beads. The nickel was stripped with 100 mM EDTA and incubated in an aqueous solution of 10 mM iron (III) chloride (FeCl3). Dried peptide fractions were reconstituted to a concentration of 0.5 μg/μL in 80% ACN/0.1% TFA. Peptide mixtures were enriched for phosphorylated peptides with 5 μL IMAC beads for 30 min with end-to-end rotation.
Enriched IMAC beads were loaded on Empore C18 silica-packed stage tips. Stage tips were equilibrated with acetonitrile followed by 50% ACN/0.1% FA then 1% FA. The beads with enriched peptides were loaded onto C18 stage tips and washed with 80% ACN/0.1% TFA. Phosphorylated peptides were eluted from IMAC beads with 500 mM dibasic sodium phosphate, pH 7.0. These peptides were washed with 1% FA before elution using 50% acetonitrile in 0.1% FA. The peptides were then dried by SpeedVac and stored at −20 °C until mass spectrometry analysis. The dried phosphopeptides were reconstituted in 0.1% formic acid and analyzed on an Orbitrap Ascend mass spectrometer coupled to a Thermo Fisher Scientific Vanquish Neo UHPLC. […] The total run time was set to 155 min. A survey full scan MS (from m/z 350–1500) was acquired in the Orbitrap at a resolution of 120,000 at 200 m/z. The most intense ions with charge state ≥2 were isolated and fragmented using higher collision dissociation (HCD) fragmentation, with 30% normalised collision energy, and detected at a mass resolution of 50,000 at 200 m/z. The isolation window was set at 1.6. The phosphoproteomics raw data were searched using SEQUEST HT search engines with Proteome Discoverer 3.0 (Thermo Fisher Scientific). The following parameters were used for searches: Precursor mass tolerance 10 ppm, fragment mass tolerance 0.02, enzyme: trypsin, […], fixed modification: carbamidomethylation of cysteine residues and TMT of lysine and N-terminal, dynamic modification: oxidation of methionine and phosphorylation of serine, threonine and tyrosine. The data were filtered for 1% PSM and peptide level. A two-tailed t-test with 250 randomisations was performed in Perseus software (v1.6.15.0) to assess statistical significance between groups. The resulting data were visualised as a volcano plot using GraphPad Prism (v10.1.2).

[4] = Intrinsic clearance (Cli), mouse liver microsomes; type: in vitro ADME; settings: 0.5 µM, scaling factor 48 mg microsomal protein per g liver
Procedure: (§1) Test compound (0.5 µM) was incubated with female CD1 mouse, male rat Han Wistar and pooled human liver microsomes (Xenotech^TM; 0.5 mg/mL 50 mM potassium phosphate buffer, pH7.4) and the reaction started with addition of excess NADPH (8 mg/mL 50 mM potassium phosphate buffer, pH7.4). Immediately, at time zero, then at 3, 6, 9, 15 and 30 min an aliquot (50 µL) of the incubation mixture was removed and mixed with acetonitrile (100 uL) to stop the reaction. An internal standard was added to all samples, the samples centrifuged to sediment precipitated protein and the plates then sealed prior to UPLC-MSMS analysis (Xevo TQ-S Micro, Waters^TM). XLfit (IDBS, UK) was used to calculate the exponential decay and consequently the rate constant (k) from the ratio of peak area of test compound to internal standard at each timepoint. The rate of intrinsic clearance (CLi) of each test compound was then calculated using the following calculation:1 CLi(mL/min/gliver)=kxVxMicrosomalproteinyield Where V (mL/mg protein) is the incubation volume/mg protein added and microsomal protein yield is taken as 48 mg, 46 mg and 40 mg protein/g liver for mouse, rat and human, respectively. Verapamil (0.5 µM) was used as a positive control to confirm acceptable assay performance.

[5] = Intrinsic clearance (Cli), rat liver microsomes; type: in vitro ADME; settings: 0.5 µM, scaling factor 46 mg microsomal protein per g liver
Procedure: as §1

[6] = Intrinsic clearance (Cli), human liver microsomes; type: in vitro ADME; settings: 0.5 µM, scaling factor 40 mg microsomal protein per g liver
Procedure: as §1

O=C(Nc1cnccc1N1CCOCC1)c1ccnn2cc(-c3ccc(Br)cc3)nc12 [compound 29]
impact on GSK3β Ser9 or GSK3β Tyr216 phosphorylation prior to degradation [1]: no impact observed
phosphorylation of Tyr216 after 2 h ([1]; 1 µM, 2 h): some reduction in phosphorylation of Tyr216

O=C1CCC(NC(=O)c2ccc(CN3CCN(CCCc4cn(-c5ccc(-c6cn7nccc(C(=O)Nc8cnccc8N8CCOCC8)c7n6)cc5)nn4)CC3)cn2)C(=O)N1 (centres unmarked) [compound 23]
Dmax ([2]; HEK293, crude mixture, stock assumed 10 mM): 81%
Dmax ([2]; HEK293, pure (resynthesised, HPLC purified) compound): 73%

CN1C(=O)CCN(c2nn(C)c3cc(CN4CCN(Cc5ccc(-c6cn(-c7ccc(-c8cn9nccc(C(=O)Nc%10cnccc%10N%10CCOCC%10)c9n8)cc7)nn6)nc5)CC4)ccc23)C1=O [compound 27]
Difference, E2F8 A0AVK6 1xPhospho [S68(99.5)] ([3]; 27 vs DMSO, MOESM7): -0.2137
Difference, E2F8 A0AVK6 1xPhospho [S417(100)] ([3]; 27 vs DMSO, MOESM7): 0.1148
Difference, GATD3B A0A0B4J2D5 1xPhospho [S98(100)] ([3]; 27 vs DMSO, MOESM7): 0.02358
Difference, SIK1B A0A0B4J2F2 1xPhospho [S575(100)] ([3]; 27 vs DMSO, MOESM7): 0.09328
Difference, UBA6 A0AVT1 1xPhospho [S36(100)] ([3]; 27 vs DMSO, MOESM7): 0.2252
Difference, A0JNW5 1xPhospho [S414(100)] UHRF1BP1L ([3]; 27 vs DMSO, MOESM8): 0.1475
Difference, A0JNW5 1xPhospho [S953(99.7)] UHRF1BP1L ([3]; 27 vs DMSO, MOESM8): -0.0085
Difference, A0MZ66 1xPhospho [S506(100)] SHTN1 ([3]; 27 vs DMSO, MOESM8): 0.1099
Difference, A0MZ66 1xPhospho [S512(100)] SHTN1 ([3]; 27 vs DMSO, MOESM8): 0.06022
Difference, A0MZ66 1xPhospho [T537(100)] SHTN1 ([3]; 27 vs DMSO, MOESM8): -0.2879
Difference, Q5PRF9 1xPhospho [S592(100)] SAMD4B ([3]; vs DMSO, MOESM9): 0.05893
Difference, Q8NEM7 1xPhospho [S437(100)] SUPT20H ([3]; vs DMSO, MOESM9): 0.2274
Difference, Q96KQ7 1xPhospho [S140(100)] EHMT2 ([3]; vs DMSO, MOESM9): 0.333
Difference, Q15398 1xPhospho [S725(100)] DLGAP5 ([3]; vs DMSO, MOESM9): 0.1236
Difference, Q15911 1xPhospho [S426(100)] ZFHX3 ([3]; vs DMSO, MOESM9): 0.1806
impact on GSK3β Ser9 or GSK3β Tyr216 phosphorylation prior to degradation [1]: no impact observed

O=C1CCC(NC(=O)c2ccc(CN3CCN(CCCCCc4cn(-c5ccc(-c6cn7nccc(C(=O)Nc8cnccc8N8CCOCC8)c7n6)cc5)nn4)CC3)cc2F)C(=O)N1 (centres unmarked) [compound 21]
Scaled Microsomal Stability MuClint [4]: 15 ml/min/g liver
Scaled Microsomal Stability RatClint [5]: 2.6 ml/min/g liver
Scaled Microsomal Stability HuClint [6]: 27 ml/min/g liver

— paper PMC12501029, “Discovery of a CNS active GSK3 degrader using orthogonally reactive linker screening” (Nature Communications, 2025)
